Reference: patent publication US4816247A, “Emulsion compositions for administration of sparingly water soluble ionizable hydrophobic drugs” (American Cyanamid Company, priority 1985, dated 1989)
≈ marks a conversion by molar mass, not a printed value. Entries after “also recorded” stand apart in the source; their conditions may differ. Counter-ions that a name gives are not always drawn.

How the values were obtained:
[1] = commercial product solution; cited from earlier work
soft tissues / vein = details: cited from earlier work
[2] = format: physicochemical
Protocol: (§1) Because the antiarthritic triazine compound is a base, organic acids as counter-ions were studied to improve drug solubility. […] Additional drug complexes were prepared with various organic and inorganic acids. […] The inherent insolubility of the drug appears to be responsible, to some extent, for the preceding results. In order to overcome the drug insolubility problem one of the objectives considered was to design a dosage form which would improve drug absorption when given by intravenous, intramuscular or intra-articular injection.

[3] = Absorption and excretion of antiarthritic triazine compound, candidate dosage forms; details: in vivo
Protocol: as §1

dogs = assay: Clinical signs and injection site findings, repeated intravenous infusion in dogs; details: dog
peripheral vein of dogs = assay: Peripheral vein irritation, intravenous infusion in peripheral vein of dogs, gross postmortem findings; format: in vivo, dog
Protocol: (§2) The emulsin drug delivery system formulation of Emulsion 3 in Table III was tested in two species of animals, for peripheral vein irritation in order to determine the occurrence of local injection site adverse reactions. Also tested was a 1.0 mg/ml solution of bisantrene hydrochloride in 5% dextrose/water and a composition of the Emulsion 3 vehicle without bisantrene base. The two species of animals used were rabbits and dogs. The formulations were given intravenously in a peripheral vein using a Butterfly infusion set (Becton, Dickinson Co., Inc., Rutherford, N.J). The marginal ear vein was used in the rabbit and the saphenous or the cephalic vein of the leg was used in the dog.
(§3) The formulations were given below by slow intravenous infusion using a Sage syringe pump (Sage Instruments, Orion Research Inc., Cambridge, Ma.) over a 2 hour period. The animals were restrained but unanesthetized during the infusion. After the infusion, the animals were returned to their cages and offered food. The animals were sacrificed one day after the infusion.
(§4) At sacrifice, the infused vein was opened from the point of infusion and cardiad for several centimeters. […] FIGS. 3, 4 and 5 are comprised of representative photographs of the opened peripheral veins of dogs as hereinabove described and verify the findings stated above.

white blood cell counts = assay: Group mean white blood cell counts, repeated intravenous infusion in dogs; format: in vivo; details: dog
Protocol: A comparison study of the group mean white blood cell counts (WBC×10^-3) was conducted separately for both the male and female animals in each group. The WBC counts of all animals were performed 7 days before dosing. Doses were administered on days 0, 21 and 42, whereas additional WBC counts on all animals were made on days 3, 7, 14, 20, 24, 28, 35, 41, 45, 49 and 56. The mean data from this test are recorded in Table VI and the group mean white blood cell counts for males and females are plotted separately in FIGS. 6 and 7 respectively.

[4] = test system: marginal ear vein of rabbits; assay: Peripheral vein irritation, intravenous infusion in marginal ear vein of rabbits, gross postmortem findings; format: in vivo, rabbit; parameters: key to External: Reddened / External: Yellow Deposit / Subcutaneous: Hemorrhage / Vascular Lumen: Yellow Deposit / External: Swollen / Subcutaneous: Edema / Subcutaneous: Yellow Deposit / Vascular Lumen: Blood Clot: +: Positive or present.; -: Negative or absent
Protocol: as §2, §3, §4

[5] = Solubility of bisantrene in selected media and biological fluids (Table IB, FIGS. 1 and 2); format: physicochemical; details: in words
Description: (§5) In serum and plasma, however due to increase in the pH the solubility drops considerably and this may be the reason that the drug precipitates at the point of infusion. […] Thus, if the drug can be kept in solution long enough to allow complete dilution in the entire blood volume, then the partitioning should take place without the intermediate precipitation.

[6] = Solubility of bisantrene base and its oleate ion-pair in water, oils and emulsions; format: physicochemical; details: in words
Description: Bisantrene base is insoluble in water, oils, oil phase of emulsions or preformed commercial, nutritional emulsions such as Intralipid® and Liposyn®. When Bisantrene base forms an ion-pair with oleic acid the solubility of Bisantrene increases in oils or oil phases of emulsions. Additionally, Bisantrene-oleate ion-pair acts as a surfactant, becomes part of an interfacial emulsion film and stabilizes the emulsion in vitro.

erythrocytes = assay: Partitioning of bisantrene in blood; format: in vitro ADME; details: in words
Description: as §5

plasma protein = details: cited from earlier work
[7] = rabbit, female, 2 h i.v. infusion
[8] = rabbit, male, 2 h i.v. infusion

SMILES: CC(C)NCC(O)COc1cccc2ccccc12 (racemic) [Inderal, propanolol]
- Ambient Solution pH [1]: 3.50

SMILES: COc1cccc2c1C(=O)c1c(O)c3c(c(O)c1C2=O)C[C@@](O)(C(=O)CO)C[C@@H]3O[C@H]1C[C@H](N)[C@H](O)[C@H](C)O1 [Adriamycin, Doxorubicin]
- effect of extravasation into the soft tissues (soft tissues / vein; intravenous administration in cancer therapy): massive tissue necrosis about the site of the attempted intravenous administration

SMILES: CC(C)(C)C(C)(C)Nc1nc(NC(C)(C)C(C)(C)C)nc(N2CC3CCC(CC3)C2)n1 [Antiarthritic Triazine Compound, 3-[4,6-bis[(1,1-2,2-tetramethylpropyl)amino]-s-triazin-2-yl]-3-azabicyclo[3.2.2]nonane]
- Solubility [2]: 300 µg/mL (≈ 697 µM)
- increase of solubility not more than [2]: 500 to 1000 µg/mL
- solubility in water [2]: insignificant solubility in water
- parenteral absorption of the drug [3]: negligible
- oral absorption ([3]; po): slightly better

SMILES: C[C@H](N)[C@H](O)c1cccc(O)c1 [Aramine, metaraminol]
- Ambient Solution pH [1]: 3.60

SMILES: OCCOCCN1CCN(C(c2ccccc2)c2ccc(Cl)cc2)CC1 (centres unmarked) [Atarax, hydroxyzine]
- Ambient Solution pH [1]: 5.60

SMILES: C(=N\NC1=NCCN1)/c1c2ccccc2c(/C=N/NC2=NCCN2)c2ccccc12 [Bisantrene HCl]
- clinical signs during the intravenous infusion (dogs; 10 mg/kg, about 2 h infusion): none was apparent
- swelling of the infused leg (dogs; 10 mg/kg, about 2 h infusion): three
- local injection site deposits or binding of the drug, inflammation and phlebitis (dogs; conclusion of study): present
- yellow-orange deposit in vascular-lumen, photograph of dog vein (peripheral vein of dogs; FIGS. 3A, 3B, 4A, 5A, listed as bisantrene hydrochloride): clearly shows the yellow-orange deposits in the vascular-lumen
- yellow or yellow-orange deposits in vascular-lumen (peripheral vein of dogs; peripheral vein of dogs): yellow or yellow-orange deposits which result
- group mean white blood cell count (white blood cell counts; female, day 3, 10 mg/kg i.v. on days 0, 21, 42): 6.3 WBC × 10^-3
- group mean white blood cell count (white blood cell counts; female, day 7, 10 mg/kg i.v. on days 0, 21, 42): 4.5 WBC × 10^-3
- group mean white blood cell count (white blood cell counts; female, day 14, 10 mg/kg i.v. on days 0, 21, 42): 8.6 WBC × 10^-3
- group mean white blood cell count (white blood cell counts; female, day 20, 10 mg/kg i.v. on days 0, 21, 42): 10.5 WBC × 10^-3
- group mean white blood cell count (white blood cell counts; female, day 24, 10 mg/kg i.v. on days 0, 21, 42): 5.1 WBC × 10^-3
- group mean white blood cell count (white blood cell counts; female, day 28, 10 mg/kg i.v. on days 0, 21, 42): 4.1 WBC × 10^-3
- group mean white blood cell count (white blood cell counts; female, day 35, 10 mg/kg i.v. on days 0, 21, 42): 13.0 WBC × 10^-3
- group mean white blood cell count (white blood cell counts; female, day 41, 10 mg/kg i.v. on days 0, 21, 42): 9.7 WBC × 10^-3
- group mean white blood cell count (white blood cell counts; female, day 45, 10 mg/kg i.v. on days 0, 21, 42): 5.1 WBC × 10^-3
- group mean white blood cell count (white blood cell counts; female, day 49, 10 mg/kg i.v. on days 0, 21, 42): 6.0 WBC × 10^-3
- group mean white blood cell count (white blood cell counts; female, day 56, 10 mg/kg i.v. on days 0, 21, 42): 13.2 WBC × 10^-3
- group mean white blood cell count (white blood cell counts; female, day -7 (before dosing)): 10.1 WBC × 10^-3
- group mean white blood cell count (white blood cell counts; male, day 3, 10 mg/kg i.v. on days 0, 21, 42): 7.0 WBC × 10^-3
- group mean white blood cell count (white blood cell counts; male, day 7, 10 mg/kg i.v. on days 0, 21, 42): 3.7 WBC × 10^-3
- group mean white blood cell count (white blood cell counts; male, day 14, 10 mg/kg i.v. on days 0, 21, 42): 11.1 WBC × 10^-3
- group mean white blood cell count (white blood cell counts; male, day 20, 10 mg/kg i.v. on days 0, 21, 42): 10.8 WBC × 10^-3
- group mean white blood cell count (white blood cell counts; male, day 24, 10 mg/kg i.v. on days 0, 21, 42): 5.1 WBC × 10^-3
- group mean white blood cell count (white blood cell counts; male, day 28, 10 mg/kg i.v. on days 0, 21, 42): 2.9 WBC × 10^-3
- group mean white blood cell count (white blood cell counts; male, day 35, 10 mg/kg i.v. on days 0, 21, 42): 13.5 WBC × 10^-3
- group mean white blood cell count (white blood cell counts; male, day 41, 10 mg/kg i.v. on days 0, 21, 42): 11.3 WBC × 10^-3
- group mean white blood cell count (white blood cell counts; male, day 45, 10 mg/kg i.v. on days 0, 21, 42): 5.3 WBC × 10^-3
- group mean white blood cell count (white blood cell counts; male, day 49, 10 mg/kg i.v. on days 0, 21, 42): 3.3 WBC × 10^-3
- group mean white blood cell count (white blood cell counts; male, day 56, 10 mg/kg i.v. on days 0, 21, 42): 12.8 WBC × 10^-3
- group mean white blood cell count (white blood cell counts; male, day -7 (before dosing)): 11.3 WBC × 10^-3
- yellow or yellow-orange deposits in vascular-lumen ([4]; marginal ear vein of rabbits): yellow or yellow-orange deposits which result
- External: Reddened [4, 7]: +
- External: Yellow Deposit [4, 7]: +
- Subcutaneous: Hemorrhage [4, 7]: -
- Vascular Lumen: Yellow Deposit [4, 7]: +
- External: Reddened [4, 8]: -
- External: Swollen [4, 8]: -
- External: Yellow Deposit [4, 8]: -
- Subcutaneous: Edema [4, 8]: +
- Subcutaneous: Hemorrhage [4, 8]: -
- Subcutaneous: Yellow Deposit [4, 8]: -
- Vascular Lumen: Blood Clot [4, 8]: -
- Vascular Lumen: Yellow Deposit [4, 8]: +

SMILES: C(=N\NC1=NCCN1)/c1c2ccccc2c(/C=N/NC2=NCCN2)c2ccccc12 [Bisantrene, bis(2-imidazolin-2-ylhydrazone)-9,10-anthracenedicarboxaldehyde]
- solubility in whole blood ([5]; compared with plasma and serum): much greater than in plasma and serum
- solubility characteristics of bisantrene [5]: very sensitive to temperature changes, pH, and various solutes; also recorded: quite soluble in media useful as candidates for I.V. infusions such as normal saline and 5% dextrose
- solubility in water, oils, oil phase of emulsions or preformed commercial nutritional emulsions [6]: insoluble
- partitioning in blood (erythrocytes): eventually partitions into the erythrocytes which then serve as slow release carriers

SMILES: C(=NNC1=NCCN1)c1c2ccccc2c(C=NNC2=NCCN2)c2ccccc12 [Bisantrene-oleate ion-pair]
- solubility in oils or oil phases of emulsions ([6]; ion-pair with oleic acid): increases

SMILES: CC(=O)Nc1ccc(OCC(O)CNC(C)C)cc1 (centres unmarked) [Eraldin, practolol]
- Ambient Solution pH [1]: 5.80

SMILES: C(=N\NC1=NCCN1)/c1c2ccccc2c(/C=N/NC2=NCCN2)c2ccccc12 [bisantrene dihydrochloride]
- problem likely to occur on intravenous injection (soft tissues / vein; aqueous solution i.v. in mammals): chemical phlebitis

SMILES: CCCCCCCC/C=C\CCCCCCCC(=O)O [oleic acid]
- molecules bound with one molecule of typical plasma protein (plasma protein): nine
